Assay results reported in PubChem BioAssay AID248 (DTP/NCI, 2004).
Where “and” joins values, the source holds several entries; their conditions need not be identical. Equal entries are not always repeated. Toxic doses and inconclusive results are not listed. No stated cut-off is given here; in the data, active means T/C of 150% or more; inactive means T/C below 125%.

Test system: L1210 leukemia ip in BDF1 mice, survival T/C
Test: NCI In Vivo Anticancer Drug Screen. Data for tumor model L1210 Leukemia (intraperitoneal) in B6D2F1 (BDF1) mice
Details: endpoint: mean survival time, higher = longer survival
Method in brief: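 Mice bearing the transplanted tumor received compound or vehicle. Survival of the treated group was divided by that of the vehicle-treated control group to give the ratio.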

[1] = dose: 100.0 mg/kg/injection, schedule: Q04DX002 (ip), vehicle: Klucel (hydroxypropylcellulose) (HPC)
[2] = dose: 200.0 mg/kg/injection, schedule: Q04DX002 (ip), vehicle: Klucel (hydroxypropylcellulose) (HPC)
[3] = dose: 400.0 mg/kg/injection, schedule: Q04DX002 (ip), vehicle: Klucel (hydroxypropylcellulose) (HPC)
[4] = dose: 100.0 mg/kg/injection, schedule: Q01DX009 (ip), vehicle: saline
[5] = dose: 100.0 mg/kg/injection, schedule: Q04DX003 (ip), vehicle: saline
[6] = dose: 200.0 mg/kg/injection, schedule: Q01DX009 (ip), vehicle: saline
[7] = dose: 200.0 mg/kg/injection, schedule: Q04DX003 (ip), vehicle: saline
[8] = dose: 400.0 mg/kg/injection, schedule: Q04DX003 (ip), vehicle: saline

Measured: T/C

CC12CCC(O)CC1CCC1C2CCC2(C)C(C(=O)CO)CCC12 (stereo not given)
inactive: dose: 100.0 mg/kg/injection, schedule: Q01DX001 (sc), vehicle: steriod suspending solution 103 % of control | dose: 200.0 mg/kg/injection, schedule: Q01DX001 (sc), vehicle: steriod suspending solution 103 % of control | dose: 400.0 mg/kg/injection, schedule: Q01DX001 (sc), vehicle: steriod suspending solution 101 % of control

O=c1[nH]cnc2c1ncn2Cc1cccc2ccccc12
inactive: [1] 94 % of control | [2] 94 % of control | [3] 94 % of control

O=C(Nc1ccc(C(=O)Nc2ccc(C3=NCCN3)cc2)cc1)Nc1ccc(C(=O)Nc2ccc(C3=NCCN3)cc2)cc1
inactive: dose: 15.0 mg/kg/injection, schedule: Q01DX Z (ip), vehicle: methylcellulose (MC) 102 % of control | dose: 30.0 mg/kg/injection, schedule: Q01DX Z (ip), vehicle: methylcellulose (MC) 103 % of control | dose: 60.0 mg/kg/injection, schedule: Q01DX Z (ip), vehicle: methylcellulose (MC) 101 % of control | dose: 62.0 mg/kg/injection, schedule: Q01DX Z (ip), vehicle: carboxymethylcellulose (CMC) 91 % of control | dose: 120.0 mg/kg/injection, schedule: Q01DX Z (ip), vehicle: methylcellulose (MC) 103 % of control | dose: 125.0 mg/kg/injection, schedule: Q01DX Z (ip), vehicle: carboxymethylcellulose (CMC) 91 % of control | dose: 250.0 mg/kg/injection, schedule: Q01DX Z (ip), vehicle: carboxymethylcellulose (CMC) 96 % of control

CC1=C2CC(C(C)(C)O)CCC2(C)CC/C1=N\NC(N)=S (stereo not given)
inactive: dose: 100.0 mg/kg/injection, schedule: Q01DX009 (ip), vehicle: saline with Tween-80 98 % of control | dose: 400.0 mg/kg/injection, schedule: Q01DX009 (ip), vehicle: saline with Tween-80 86 % of control

O=C1CCC(=O)C12CCNCC2
inactive: [4] 97 % of control | [5] 100 % of control | [6] 104 % of control | [7] 88 % of control | [8] 107 % of control

[Cl][Pt+2][Cl].[NH-]C1CCCC1.[NH-]C1CCCC1
inactive: dose: 10.0 mg/kg/injection, schedule: Q01DX009 (ip), vehicle: Klucel (hydroxypropylcellulose) (HPC) 102 % of control | dose: 20.0 mg/kg/injection, schedule: Q01DX009 (ip), vehicle: Klucel (hydroxypropylcellulose) (HPC) 116 % of control | dose: 20.0 mg/kg/injection, schedule: Q04DX003 (ip), vehicle: Klucel (hydroxypropylcellulose) (HPC) 121 % of control | dose: 40.0 mg/kg/injection, schedule: Q01DX005 (ip), vehicle: olive oil, sesame oil, peanut oil 109 % of control | dose: 40.0 mg/kg/injection, schedule: Q01DX009 (ip), vehicle: Klucel (hydroxypropylcellulose) (HPC) 107 % of control | dose: 40.0 mg/kg/injection, schedule: Q04DX003 (ip), vehicle: Klucel (hydroxypropylcellulose) (HPC) 111 % of control and 123 % of control | dose: 66.0 mg/kg/injection, schedule: Q01DX005 (ip), vehicle: olive oil, sesame oil, peanut oil 112 % of control | dose: 80.0 mg/kg/injection, schedule: Q01DX009 (ip), vehicle: Klucel (hydroxypropylcellulose) (HPC) 121 % of control | dose: 80.0 mg/kg/injection, schedule: Q04DX003 (ip), vehicle: Klucel (hydroxypropylcellulose) (HPC) 117 % of control | dose: 100.0 mg/kg/injection, schedule: Q01DX005 (ip), vehicle: olive oil, sesame oil, peanut oil 120 % of control | dose: 150.0 mg/kg/injection, schedule: Q01DX005 (ip), vehicle: olive oil, sesame oil, peanut oil 115 % of control | dose: 160.0 mg/kg/injection, schedule: Q01DX009 (ip), vehicle: Klucel (hydroxypropylcellulose) (HPC) 124 % of control | dose: 160.0 mg/kg/injection, schedule: Q04DX003 (ip), vehicle: Klucel (hydroxypropylcellulose) (HPC) 108 % of control and 112 % of control | dose: 320.0 mg/kg/injection, schedule: Q01DX009 (ip), vehicle: Klucel (hydroxypropylcellulose) (HPC) 96 % of control | dose: 320.0 mg/kg/injection, schedule: Q04DX003 (ip), vehicle: Klucel (hydroxypropylcellulose) (HPC) 118 % of control

O=C(CN1C(=O)C2CCCCC2C1=O)N1CC1 (stereo not given)
inactive: dose: 100.0 mg/kg/injection, schedule: Q01DX001 (ip), vehicle: carboxymethylcellulose (CMC) 110 % of control | dose: 200.0 mg/kg/injection, schedule: Q01DX001 (ip), vehicle: carboxymethylcellulose (CMC) 103 % of control

CCOC(=O)c1c(-c2ccccc2)csc1N
inactive: dose: 50.0 mg/kg/injection, schedule: Q04DX003 (ip), vehicle: saline with Tween-80 97 % of control | dose: 100.0 mg/kg/injection, schedule: Q04DX003 (ip), vehicle: saline with Tween-80 94 % of control | dose: 200.0 mg/kg/injection, schedule: Q04DX003 (ip), vehicle: saline with Tween-80 90 % of control

CC1(C#N)CCc2c(ccc3ccccc23)C1=O (stereo not given)
inactive: [4] 95 % of control | [5] 96 % of control | [6] 95 % of control | [7] 94 % of control | [8] 101 % of control

CCOC(=O)c1cnc(C)[nH]c1=O
inactive: dose: 12.5 mg/kg/injection, schedule: Q01DX009 (ip), vehicle: saline 100 % of control | dose: 25.0 mg/kg/injection, schedule: Q01DX009 (ip), vehicle: saline 99 % of control | dose: 50.0 mg/kg/injection, schedule: Q01DX009 (ip), vehicle: saline 94 % of control | dose: 100.0 mg/kg/injection, schedule: Q01DX001 (ip), vehicle: saline 108 % of control | [4] 101 % of control | dose: 200.0 mg/kg/injection, schedule: Q01DX001 (ip), vehicle: saline 101 % of control

COc1cc(C=Nc2ccc3c(c2)Cc2ccccc2-3)ccc1O
inactive: dose: 100.0 mg/kg/injection, schedule: Q04DX003 (ip), vehicle: saline sonified 94 % of control | dose: 200.0 mg/kg/injection, schedule: Q04DX003 (ip), vehicle: saline sonified 97 % of control | dose: 400.0 mg/kg/injection, schedule: Q04DX003 (ip), vehicle: saline sonified 95 % of control

Cc1cccc(NC(=S)N2CCOCC2)c1
inactive: dose: 87.5 mg/kg/injection, schedule: Q01DX009 (ip), vehicle: Klucel (hydroxypropylcellulose) (HPC) 110 % of control | dose: 175.0 mg/kg/injection, schedule: Q01DX009 (ip), vehicle: Klucel (hydroxypropylcellulose) (HPC) 100 % of control | dose: 350.0 mg/kg/injection, schedule: Q01DX009 (ip), vehicle: Klucel (hydroxypropylcellulose) (HPC) 108 % of control

COc1ccc(Cc2nc3ccc(Cl)cc3[nH]2)cc1
inactive: dose: 100.0 mg/kg/injection, schedule: Q04DX003 (ip), vehicle: other 101 % of control | dose: 200.0 mg/kg/injection, schedule: Q04DX003 (ip), vehicle: other 98 % of control | dose: 400.0 mg/kg/injection, schedule: Q04DX003 (ip), vehicle: other 98 % of control

N#Cc1cccc(C(Br)S(=O)(=O)c2ccccc2)c1 (stereo not given)
inactive: [1] 116 % of control | [2] 111 % of control | [3] 90 % of control

CCOC(=O)Nc1cc2c(c(NC(=O)OCC)n1)N=C(CN(C)c1ccccc1)CN2
inactive: dose: 12.5 mg/kg/injection, schedule: Q01DX009 (ip), vehicle: saline with Tween-80 100 % of control | dose: 25.0 mg/kg/injection, schedule: Q01DX009 (ip), vehicle: saline with Tween-80 105 % of control | dose: 50.0 mg/kg/injection, schedule: Q01DX009 (ip), vehicle: saline with Tween-80 114 % of control | dose: 88.0 mg/kg/injection, schedule: Q01DX001 (ip), vehicle: saline with Tween-80 105 % of control | dose: 100.0 mg/kg/injection, schedule: Q01DX001 (ip), vehicle: saline with Tween-80 106 % of control | dose: 133.0 mg/kg/injection, schedule: Q01DX001 (ip), vehicle: saline with Tween-80 97 % of control | dose: 200.0 mg/kg/injection, schedule: Q01DX001 (ip), vehicle: saline with Tween-80 113 % of control

CCOC(=O)c1ccc(NC(=O)Oc2cccc(NC(C)=O)c2)cc1
inactive: dose: 100.0 mg/kg/injection, schedule: Q01DX009 (ip), vehicle: Klucel (hydroxypropylcellulose) (HPC) 92 % of control | dose: 200.0 mg/kg/injection, schedule: Q01DX009 (ip), vehicle: Klucel (hydroxypropylcellulose) (HPC) 95 % of control | dose: 400.0 mg/kg/injection, schedule: Q01DX009 (ip), vehicle: Klucel (hydroxypropylcellulose) (HPC) 92 % of control

N=C(N)S/C=C/CSC(=N)N
inactive: dose: 10.0 mg/kg/injection, schedule: Q01DX001 (ip), vehicle: saline 90 % of control | dose: 20.0 mg/kg/injection, schedule: Q01DX001 (ip), vehicle: saline 95 % of control | dose: 40.0 mg/kg/injection, schedule: Q01DX001 (ip), vehicle: saline 95 % of control | dose: 80.0 mg/kg/injection, schedule: Q01DX001 (ip), vehicle: saline 97 % of control

NC(=O)CSc1cc(Cl)ccc1Cl
inactive: dose: 100.0 mg/kg/injection, schedule: Q01DX001 (ip), vehicle: other 96 % of control | dose: 200.0 mg/kg/injection, schedule: Q01DX001 (ip), vehicle: other 107 % of control | dose: 400.0 mg/kg/injection, schedule: Q01DX001 (ip), vehicle: other 113 % of control
